Measured values reported in patent US10568890B2 (Xi'An Libang Pharmaceutical Co., Ltd, priority 2012, dated 2020).
In brackets after ≈: the same amount, converted by molar mass.

Tests used:
[1] = Test of miscibility of formulae in vitro; type: physicochemical
Method: Ethyl lactate was mixed with ethyl oleate, glycerol triacetate, benzyl benzoate, castor oil, sesame oil, soybean oil, corn oil and olive oil respectively for miscibility, and then the conditions of miscibility were observed. Specifically, 1) adding 0.50 ml of ethyl lactate for each one into eight vials of 7 ml each, and then adding 0.50 ml of ethyl oleate, glycerol triacetate, benzyl benzoate, castor oil, sesame oil, soybean oil, corn oil and olive oil thereto respectively; swirl them for 5 min to be mixed uniformly, followed by standing for 10 min, and then observing and recording the conditions of miscibility of various solvents; 2) adding 0.30 ml of sesame oil, soybean oil, corn oil, olive oil, ethyl oleate, glycerol triacetate and benzyl benzoate respectively into seven vials of 7 ml each; and then adding 0.30 ml of castor oil and 0.30 ml of ethyl lactate thereto; swirl them for 5 min to be mixed uniformly, followed by standing for 10 min; and then observing and recording the conditions of miscibility of various solvents.

[2] = test system: advanced breast cancer patients (postmenopausal); details: after treatment failure of first-line non-steroid drugs; cited from earlier work
[3] = Solubility test of fulvestrant in some solvents; type: physicochemical; details: 25° C.
Method: If it was dissolved completely, the addition of the drug was resumed to reach a saturated state. Nitrogen was introduced, and the vials were kept airtight and free of light for 1-2 days to reach a dissolution-precipitation balance.

miscibility of ethyl lactate ([1]; with benzyl benzoate, 0.50 ml each) | miscibility of ethyl lactate ([1]; with castor oil, 0.50 ml each) | miscibility of ethyl lactate ([1]; with corn oil, 0.50 ml each) | miscibility of ethyl lactate ([1]; with ethyl oleate, 0.50 ml each) | miscibility of ethyl lactate ([1]; with glycerol triacetate, 0.50 ml each) | miscibility of ethyl lactate ([1]; with mixed oil 1 (1:1 ethyl oleate and castor oil)) | miscibility of ethyl lactate ([1]; with mixed oil 2 (1:1 benzyl benzoate and castor oil)) | miscibility of ethyl lactate ([1]; with mixed oil 3 (1:1 glycerol triacetate and castor oil)) | miscibility of ethyl lactate ([1]; with mixed oil 4 (1:1 sesame oil and castor oil)) | miscibility of ethyl lactate ([1]; with mixed oil 5 (1:1 corn oil and castor oil)) | miscibility of ethyl lactate ([1]; with mixed oil 6 (1:1 olive oil and castor oil)) | miscibility of ethyl lactate ([1]; with mixed oil 7 (1:1 soybean oil and castor oil)) | miscibility of ethyl lactate ([1]; with olive oil, 0.50 ml each) | miscibility of ethyl lactate ([1]; with sesame oil, 0.50 ml each) | miscibility of ethyl lactate ([1]; with soybean oil, 0.50 ml each) | Solubility ([3]; in benzyl propionate) | Solubility ([3]; in isopentyl acetate) | SMILES | overall response rate [2]
miscible | miscible | immiscible | miscible | miscible | miscible | miscible | miscible | miscible | miscible | miscible | miscible | immiscible | immiscible | immiscible |  |  | CCOC(=O)C(C)O (stereo not drawn) [ethyl lactate, ethyl α-hydroxylpropionate] | 
 |  |  |  |  |  |  |  |  |  |  |  |  |  |  |  |  | C=C1C[C@@H]2[C@H](CC[C@]3(C)C(=O)CC[C@@H]23)[C@@]2(C)C=CC(=O)C=C12 [exemestane] | 28%
 |  |  |  |  |  |  |  |  |  |  |  |  |  |  | 4.34 mg/mL (≈ 7.15 mM) | 50.98 mg/mL (≈ 84 mM) | C[C@]12CC[C@@H]3c4ccc(O)cc4C[C@@H](CCCCCCCCC[S+]([O-])CCCC(F)(F)C(F)(F)F)[C@H]3[C@@H]1CC[C@@H]2O (stereo partly shown) [fulvestrant] | 37%
